Test results published in patent US20080063670A1, “Nitroimidazole composition and method” (priority 2006, published 2008).

Legend:
[1] = Solubilization of nitroimidazoles in water with and without acids: crystals forced at about 4° C., re-dissolution observed at about 20° C. over about 14 days; type: physicochemical; set-up: key to crystals present: − means no crystals present; + means crystal are present; conditions: for crystals present: water, about 20° C., 14 days
Description: Heat was applied, if necessary, to dissolve the nitroimidazole. No organic co-solvents, water-soluble vitamins, or cyclodextrins were present in the solutions. The amount of acid was selected to be about equimolar with the amount of nitroimidazole added. After the nitroimidazole was dissolved, each solution was cooled to about 4° C. to force crystallization of some of the nitroimidazole. If crystals were not observed upon cooling, seed crystals of nitroimidazole were added and the solution were again maintained at about 4° C. […] The absence of crystals after 14 days indicates effective dissolution of the nitroimidazole.

[2] = in water at neutral pH; cited from earlier work

Cc1ncc([N+](=O)[O-])n1CCO [Metronidazole, 1-(2-hydroxyethyl)-2-methyl-5-nitroimidazole]
−: crystals present ([1]; Metronidazole Concentration 0.8%, Acid: Acetic (about equimolar)) | crystals present ([1]; Metronidazole Concentration 0.8%, Acid: Hydrochloric (about equimolar)) | crystals present ([1]; Metronidazole Concentration 0.8%, Acid: None) | crystals present ([1]; Metronidazole Concentration 0.8%, Acid: Tartaric (about equimolar)) | crystals present ([1]; Metronidazole Concentration 1.0%, Acid: Acetic (about equimolar)) | crystals present ([1]; Metronidazole Concentration 1.0%, Acid: Citric (about equimolar)) | crystals present ([1]; Metronidazole Concentration 1.0%, Acid: Hydrochloric (about equimolar)) | crystals present ([1]; Metronidazole Concentration 1.0%, Acid: Tartaric (about equimolar)) | crystals present ([1]; Metronidazole Concentration 1.2%, Acid: Tartaric (about equimolar)) | crystals present ([1]; Metronidazole Concentration […], Acid: Citric (about equimolar))
less than 1 percent by weight: solubility in water [2]
+: crystals present ([1]; Metronidazole Concentration 1.0%, Acid: None) | crystals present ([1]; Metronidazole Concentration 1.2%, Acid: Acetic (about equimolar)) | crystals present ([1]; Metronidazole Concentration 1.2%, Acid: Hydrochloric (about equimolar)) | crystals present ([1]; Metronidazole Concentration […], Acid: None)
at least 1 percent by weight: concentration of solutions free from crystals ([1]; at 20° C., utilizing organic acids (e.g., acetic acid, citric acid, tartaric acid, and malic acid))

CCS(=O)(=O)CCn1c([N+](=O)[O-])cnc1C [Tinidazole, 1-[2-(ethylsulfonyl)ethyl]-2-methyl-5-nitroimidazole]
−: crystals present ([1]; Tinidazole Concentration 0.45%, Acid: Acetic (about equimolar)) | crystals present ([1]; Tinidazole Concentration 0.45%, Acid: Citric (about equimolar)) | crystals present ([1]; Tinidazole Concentration 0.45%, Acid: Hydrochloric (about equimolar)) | crystals present ([1]; Tinidazole Concentration 0.45%, Acid: None) | crystals present ([1]; Tinidazole Concentration 0.45%, Acid: Tartaric (about equimolar)) | crystals present ([1]; Tinidazole Concentration 0.50%, Acid: Acetic (about equimolar)) | crystals present ([1]; Tinidazole Concentration 0.50%, Acid: Citric (about equimolar)) | crystals present ([1]; Tinidazole Concentration 0.50%, Acid: Hydrochloric (about equimolar)) | crystals present ([1]; Tinidazole Concentration 0.50%, Acid: Tartaric (about equimolar)) | crystals present ([1]; Tinidazole Concentration 0.55%, Acid: Citric (about equimolar)) | crystals present ([1]; Tinidazole Concentration 0.55%, Acid: Hydrochloric (about equimolar)) | crystals present ([1]; Tinidazole Concentration 0.55%, Acid: Tartaric (about equimolar))
about 0.45 percent by weight: solubility in water [2]
+: crystals present ([1]; Tinidazole Concentration 0.50%, Acid: None) | crystals present ([1]; Tinidazole Concentration 0.55%, Acid: Acetic (about equimolar)) | crystals present ([1]; Tinidazole Concentration 0.55%, Acid: None) | crystals present ([1]; Tinidazole Concentration 0.60%, Acid: Acetic (about equimolar)) | crystals present ([1]; Tinidazole Concentration 0.60%, Acid: Citric (about equimolar)) | crystals present ([1]; Tinidazole Concentration 0.60%, Acid: Hydrochloric (about equimolar)) | crystals present ([1]; Tinidazole Concentration 0.60%, Acid: None) | crystals present ([1]; Tinidazole Concentration 0.60%, Acid: Tartaric (about equimolar))
about 0.55 percent by weight: concentration obtained (as high as), free from crystals ([1]; at 20° C., utilizing citric acid and using tartaric acid)
